Experimental findings from patent US12649750B2, “Macrocyclic compounds, compositions, and methods of using thereof” (Sionna Therapeutics Inc., priority 2022, dated 2026) are described below.

One assay concerns the target T1, NBD1 (Homo sapiens, UniProt P13569).
T1 construct: Purified recombinant NBD1 was produced using previously described methods; made in house
Nature of the assay: Aggregation analysis using differential static light scattering (DSLS), thermal stability of NBD1 (ΔTagg). It is filed as binding. The settings on record: ΔTagg versus DMSO control, NBD1 0.2 mg/ml. Put shortly: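 Differential static light scattering read from 25° C. to 70° C. every 0.5° C., ramp 1° C./min, on recombinant NBD1 (0.2 mg/ml; Tris/NaCl/MgCl2 buffer with 2 mM ATP, 2 mM DTT, pH 7.6, 1% glycerol) plus compound. Reported ΔTagg subtracts averaged DMSO Tagg from inflection-point Tagg; categories A ≤5, B >5-10, C >10-25° C.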

The next assay concerns the target T2, CFTR (Homo sapiens, UniProt P13569, DEL508-508).
T2 construct: Primary human bronchial epithelial cells from a ΔF508 homozygous CF donor; host or cells: primary human bronchial epithelial cells (CF-HBE), ΔF508 homozygous donor
Nature of the assay: TECC24 AUC fold over DMSO @10 μM, CFTR-mediated transepithelial chloride transport in CF-HBE cells. It is filed as cell-based. The settings on record: test agent AUC divided by DMSO vehicle AUC, primary CF-HBE cells, ΔF508 homozygous donor, 48 hours incubation. Summed up:
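ΔF508-homozygous primary bronchial epithelial cells incubated 48 h at 36.5° C with compound (10 μM) in IL-13-containing medium, then TECC24 current-clamp recording in pH 7.4 Hepes saline with benzamil 10 μM, forskolin 10 μM, then CFTR inhibitor-172 20 μM. Equivalent Cl− current AUC between forskolin and inhibitor, expressed as fold over DMSO.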

T1 sequence (P13569 423-646 limits assumed): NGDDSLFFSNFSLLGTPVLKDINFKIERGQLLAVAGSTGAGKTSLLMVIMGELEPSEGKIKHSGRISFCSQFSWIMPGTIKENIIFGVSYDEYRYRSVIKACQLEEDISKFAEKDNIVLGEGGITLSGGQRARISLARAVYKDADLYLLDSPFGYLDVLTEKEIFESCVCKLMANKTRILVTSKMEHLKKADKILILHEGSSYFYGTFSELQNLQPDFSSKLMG
T2 sequence (P13569 with tags, fused parts or gaps DEL508-508): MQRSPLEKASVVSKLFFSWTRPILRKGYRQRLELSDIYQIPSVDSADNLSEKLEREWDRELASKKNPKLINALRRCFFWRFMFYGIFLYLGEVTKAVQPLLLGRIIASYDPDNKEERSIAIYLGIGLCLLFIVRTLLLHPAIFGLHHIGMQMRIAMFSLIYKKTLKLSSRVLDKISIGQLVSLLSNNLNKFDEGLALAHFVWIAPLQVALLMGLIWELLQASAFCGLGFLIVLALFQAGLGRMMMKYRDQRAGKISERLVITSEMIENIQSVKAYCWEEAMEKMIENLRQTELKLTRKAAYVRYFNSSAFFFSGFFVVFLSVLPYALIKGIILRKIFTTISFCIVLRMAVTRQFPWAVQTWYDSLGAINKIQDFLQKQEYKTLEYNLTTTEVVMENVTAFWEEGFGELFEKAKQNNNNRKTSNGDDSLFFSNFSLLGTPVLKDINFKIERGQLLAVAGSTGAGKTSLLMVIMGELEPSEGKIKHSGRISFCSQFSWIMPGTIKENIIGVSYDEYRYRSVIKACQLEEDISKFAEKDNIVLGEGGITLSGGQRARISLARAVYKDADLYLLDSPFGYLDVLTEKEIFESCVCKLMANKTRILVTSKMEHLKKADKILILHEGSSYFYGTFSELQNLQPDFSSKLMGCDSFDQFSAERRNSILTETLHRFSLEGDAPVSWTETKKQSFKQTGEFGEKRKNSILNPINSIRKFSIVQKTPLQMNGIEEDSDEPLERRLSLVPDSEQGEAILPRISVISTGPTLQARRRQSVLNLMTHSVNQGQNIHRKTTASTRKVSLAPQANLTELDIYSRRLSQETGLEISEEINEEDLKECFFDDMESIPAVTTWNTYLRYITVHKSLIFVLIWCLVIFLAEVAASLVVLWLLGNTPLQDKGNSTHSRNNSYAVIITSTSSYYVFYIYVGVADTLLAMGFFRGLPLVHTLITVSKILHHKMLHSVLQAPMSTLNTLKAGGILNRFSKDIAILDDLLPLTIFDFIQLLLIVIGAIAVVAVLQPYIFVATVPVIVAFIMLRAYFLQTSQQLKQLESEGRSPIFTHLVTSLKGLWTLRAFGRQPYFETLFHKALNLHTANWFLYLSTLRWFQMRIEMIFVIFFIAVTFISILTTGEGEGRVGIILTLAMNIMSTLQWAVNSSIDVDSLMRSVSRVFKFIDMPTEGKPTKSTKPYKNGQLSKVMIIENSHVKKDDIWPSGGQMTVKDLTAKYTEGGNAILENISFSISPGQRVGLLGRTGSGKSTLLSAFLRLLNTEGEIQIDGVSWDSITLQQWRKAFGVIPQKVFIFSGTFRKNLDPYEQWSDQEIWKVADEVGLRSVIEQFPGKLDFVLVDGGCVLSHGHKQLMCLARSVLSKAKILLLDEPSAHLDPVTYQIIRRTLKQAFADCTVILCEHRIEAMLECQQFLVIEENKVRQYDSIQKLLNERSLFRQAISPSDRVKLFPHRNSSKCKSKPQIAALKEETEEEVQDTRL

For the compound `CC(Cc1cccc(C2(C)CCCC(C)(C)CS(=O)(=O)CCc3c(c(F)cc4[nH]ccc34)Oc3cccc(c3)-c3nc2cn3C)c1)C(=O)O` (stereo not shown) [Compound 117, 3-[3-(22-Fluoro-3,6,10,10-tetramethyl-12,12-dioxo-24-oxa-12λ6-thia-3,19,30-triazapentacyclo[23.3.1.12,5.015,23.016,20]triaconta-1(29),2(30),4,15,17,20,22,25,27-nonaen-6-yl)phenyl]-2-methyl-propanoic Acid], on NBD1, the “DSLS 3D (100 μM ΔT)” value was “C (a value greater than 10 °C and less than or equal to 25 °C is marked “C”)”. At CFTR, the “TECC (AUC, 10 μM)” value is “C (a value between 20 and 80 is marked “C”)”.

Turning to `Cn1nc2nc1-c1cc(ccc1F)Oc1c(F)cc3[nH]ccc3c1CCS(=O)(=O)CC(C)(C)CCCC2(C)c1ccc2c(c1)CC(C(=O)O)C2` (stereo not shown) [Compound 128, 5-(22,28-Difluoro-3,6,10,10-tetramethyl-12,12-dioxo-24-oxa-12λ6-thia-3,4,19,30-tetrazapentacyclo[23.3.1.12,5.015,23.016,20]triaconta-1(29),2(30),4,15,17,20,22,25,27-nonaen-6-yl)indane-2-carboxylic Acid], the “DSLS 3D (100 μM ΔT)” value at NBD1 was “C (a value greater than 10 °C and less than or equal to 25 °C is marked “C”)”. In addition, the “TECC (AUC, 10 μM)” value at CFTR is listed as “A (a TECC value less than 12 is marked “A”)”.

Take `CCOC(=O)C(Cc1cccc(C2(C)CCCC(C)(C)CS(=O)(=O)CCc3c(c(F)cc4[nH]ccc34)Oc3ccc(F)c(c3)-c3nc2nn3C)c1)C(F)F` (stereo not shown) [Compound 131, Ethyl 2-[[3-(22,28-difluoro-3,6,10,10-tetramethyl-12,12-dioxo-24-oxa-12λ6-thia-3,4,19,30-tetrazapentacyclo[23.3.1.12,5.015,23.016,20]triaconta-1(29),2(30),4,15,17,20,22,25,27-nonaen-6-yl)phenyl]methyl]-3,3-difluoro-propanoate]: the “DSLS 3D (100 μM ΔT)” value on NBD1 was “A (an ΔTagg value less than or equal to 5 °C is marked “A”)”. Further, the “TECC (AUC, 10 μM)” value on CFTR was “B (a value between 12-20 is marked “B”)”.

`CC(Cc1cccc(C2(N)CCCC(C)(C)CS(=O)(=O)CCc3c(c(F)cc4[nH]ccc34)Oc3ccc(F)c(c3)-c3nc2nn3C)c1)C(=O)O` (stereo not shown) [Compound 138, 3-[3-(6-Amino-22,28-difluoro-3,10,10-trimethyl-12,12-dioxo-24-oxa-12λ6-thia-3,4,19,30-tetrazapentacyclo[23.3.1.12,5.015,23.016,20]triaconta-1(29),2(30),4,15,17,20,22,25,27-nonaen-6-yl)phenyl]-2-methyl-propanoic Acid]: the “DSLS 3D (100 μM ΔT)” value on NBD1 is “C (a value greater than 10 °C and less than or equal to 25 °C is marked “C”)”. Also, on CFTR, the “TECC (AUC, 10 μM)” value is “C (a value between 20 and 80 is marked “C”)”.

Take `Cn1nc2nc1-c1cc(ccc1F)Oc1c(F)cc3[nH]ccc3c1CCS(=O)(=O)CC(C)(C)CCCC2(C)c1cccc(O)c1` (stereo not shown) [Compound 154, 3-(22,28-Difluoro-3,6,10,10-tetramethyl-12,12-dioxo-24-oxa-12λ6-thia-3,4,19,30-tetrazapentacyclo[23.3.1.12,5.015,23.016,20]triaconta-1(29),2(30),4,15,17,20,22,25,27-nonaen-6-yl)phenol]: the “DSLS 3D (100 μM ΔT)” value on NBD1 is “B (a value above 5 °C and less than or equal to 10 °C is marked “B”)”. Also, on CFTR, the “TECC (AUC, 10 μM)” value is listed as “A (a TECC value less than 12 is marked “A”)”.

Consider `C/C(C(=O)O)=C(/C)c1cccc(C2(C)CCCC(C)(C)CS(=O)(=O)CCc3c(c(F)cc4[nH]ccc34)Oc3ccc(F)c(c3)-c3nc2nn3C)c1` (stereo not shown) [Compound 155, (E)-3-[3-(22,28-Difluoro-3,6,10,10-tetramethyl-12,12-dioxo-24-oxa-12λ6-thia-3,4,19,30-tetrazapentacyclo[23.3.1.12,5.015,23.016,20]triaconta-1(29),2(30),4,15,17,20,22,25,27-nonaen-6-yl)phenyl]-2-methyl-but-2-enoic Acid], for which, at NBD1, the “DSLS 3D (100 μM ΔT)” value was “C (a value greater than 10 °C and less than or equal to 25 °C is marked “C”)”. Also, the “TECC (AUC, 10 μM)” value at CFTR is recorded as “A (a TECC value less than 12 is marked “A”)”.

For `CC(C(=O)O)C(C)c1cccc(C2(C)CCCC(C)(C)CS(=O)(=O)CCc3c(c(F)cc4[nH]ccc34)Oc3ccc(F)c(c3)-c3nc2nn3C)c1` (stereo not shown) [Compound 156, 3-[3-(22,28-Difluoro-3,6,10,10-tetramethyl-12,12-dioxo-24-oxa-12λ6-thia-3,4,19,30-tetrazapentacyclo[23.3.1.12,5.015,23.016,20]triaconta-1(29),2(30),4,15,17,20,22,25,27-nonaen-6-yl)phenyl]-2-methyl-butanoic Acid], the “DSLS 3D (100 μM ΔT)” value at NBD1 was “C (a value greater than 10 °C and less than or equal to 25 °C is marked “C”)”. For the same compound, the “TECC (AUC, 10 μM)” value on CFTR was “B (a value between 12-20 is marked “B”)”.

`COC(=O)C(C)CCc1cccc(C2(C)CCCC(C)(C)CS(=O)(=O)CCc3c(c(F)cc4[nH]ccc34)Oc3ccc(F)c(c3)-c3nc2nn3C)c1` (stereo not shown) [Compound 159, Methyl 4-[3-(22,28-difluoro-3,6,10,10-tetramethyl-12,12-dioxo-24-oxa-12λ6-thia-3,4,19,30-tetrazapentacyclo[23.3.1.12,5.015,23.016,20]triaconta-1(29),2(30),4,15,17,20,22,25,27-nonaen-6-yl)phenyl]-2-methyl-butanoate]: the “DSLS 3D (100 μM ΔT)” value on NBD1 is “A (an ΔTagg value less than or equal to 5 °C is marked “A”)”. The “TECC (AUC, 10 μM)” value at CFTR is “B (a value between 12-20 is marked “B”)”.

On to `CC(CCc1cccc(C2(C)CCCC(C)(C)CS(=O)(=O)CCc3c(c(F)cc4[nH]ccc34)Oc3ccc(F)c(c3)-c3nc2nn3C)c1)C(=O)O` (stereo not shown) [Compound 160, 4-[3-(22,28-Difluoro-3,6,10,10-tetramethyl-12,12-dioxo-24-oxa-12λ6-thia-3,4,19,30-tetrazapentacyclo[23.3.1.12,5.015,23.016,20]triaconta-1(29),2(30),4,15,17,20,22,25,27-nonaen-6-yl)phenyl]-2-methyl-butanoic Acid], for which the “DSLS 3D (100 μM ΔT)” value on NBD1 is “C (a value greater than 10 °C and less than or equal to 25 °C is marked “C”)”. For the same compound, the “TECC (AUC, 10 μM)” value at CFTR is “A (a TECC value less than 12 is marked “A”)”.

As for `C[C@@H](Cc1cccc(C2CCCC(C)(C)CS(=O)(=O)CCc3c(c(F)cc4[nH]ccc34)C(=O)c3cccc(c3)-c3ccn2n3)c1)C(=O)O` (stereo partly drawn) [Compound 163, (2S)-3-[3-(22-Fluoro-10,10-dimethyl-12,12,24-trioxo-12λ6-thia-5,19,30-triazapentacyclo[23.3.1.12,5.015,23.016,20]triaconta-1(29),2(30),3,15,17,20,22,25,27-nonaen-6-yl)phenyl]-2-methyl-propanoic Acid], on NBD1, the “DSLS 3D (100 μM ΔT)” value is “A (an ΔTagg value less than or equal to 5 °C is marked “A”)”. Besides, the “TECC (AUC, 10 μM)” value on CFTR is on record as “A (a TECC value less than 12 is marked “A”)”.

As to `C[C@H](Cc1cccc(C2CCCC(C)(C)CS(=O)(=O)CCc3c(c(F)cc4[nH]ccc34)C(=O)c3cccc(c3)-c3ccn2n3)c1)C(=O)O` (stereo partly drawn) [Compound 164, (2R)-3-[3-(22-Fluoro-10,10-dimethyl-12,12,24-trioxo-12λ6-thia-5,19,30-triazapentacyclo[23.3.1.12,5.015,23.016,20]triaconta-1(29),2(30),3,15,17,20,22,25,27-nonaen-6-yl)phenyl]-2-methyl-propanoic acid], on NBD1, the “DSLS 3D (100 μM ΔT)” value was “A (an ΔTagg value less than or equal to 5 °C is marked “A”)”. Further, the “TECC (AUC, 10 μM)” value at CFTR was “A (a TECC value less than 12 is marked “A”)”.
